From patent US7090987B1, “Methods for the identification of compounds for the treatment of neuronal atrophy-associated dementia” (priority 1999, dated 2006) come the findings set out here.

Assay [1] concerns N2a cells expressing APPswe/PS1 wt. Description: Aβ secretion, metabolic labeling and anti-Aβ immunoprecipitation, SDS-PAGE/fluorography. In kind it is cell-based, murine. The text has this: (§1) Cells were then metabolically labeled for four hours, again in the absence or presence of autophagy inhibitors. The growth medium was collected and subjected to immunoprecipitation with an anti-Aβ monoclonal antibody that recognizes both Aβ1-40 and Aβ1-42. Labeled Aβ was resolved by SDS-PAGE and fluorography (FIG. 10A).

Assay [2] has as its system N2a cells expressing APPswe/PS1Δ9. Described as above. Type of assay: cell-based, murine.
Source text: as §1

For assay [3], the system named is N2a cells expressing APPswe/PS1 wt. Description: Secreted Aβ in conditioned medium by ELISA. Type of assay: cell-based, murine. How it is done: (§2) In a second set of experiments, N2a cells expressing APPswe/PS1 wt or APPswe/PS1Δ9 were incubated either in the presence or absence of 5 mM 3MA (FIG. 10B). Conditioned medium was collected and pooled from two plates and spun at 1000×g to remove cells and cellular debris. The amount of secreted Aβ was then determined using ELISA. In both APPswe/PS1 wt and APPswe/PS1 Δ9 N2A cells incubated in the presence of 3MA, there was a reduction of Aβ1-40 and Aβ1-42 in the conditioned medium (FIG. 10B). While the decrease was greatest in the N2A cells expressing mutant PS1, we found a significant decrease of approximately 20% or great for both Aβ species in both the wild-type and Δ9 PS1 expressing lines.
(§3) For the Aβ sandwich ELISA, Nunc-Immuno Plates (Nunc A/S, Roskilde, Denmark) were coated overnight using 4° C. using antibodies specific for Aβ40 or Aβ42 in 100 mM bicarbonate buffer, pH 9.6. Remaining protein binding sites were blocked by incubating with 1% Block Ace (Yukijirushi Milk, Sapporo Japan) in PBS for 4 hours at room temperature. 10% (w/v) homogenates were prepared from a hemibrain in 20 MM Tris, 250 mM sucrose, 1 mM EDTA, 1 mM EGTA, protease inhibitors, pH 7.4, and stored frozen at −70° C. Immediately prior to being loaded on the ELISA, 1 ml of the brain homogenate was extracted in diethylamine (Sigma, St. Lousi, Minn.) by adding an equal volume of 0.4% DEA in 100 mM NaCl, re-homogenized and centrifuged for 1 hour at 100,000×g. The supernatant was collected, neutralized with 0.1 volume 0.5 M Tris, pH 6.8, and loaded in duplicate wells both neat and diluted 1:2 in EC buffer (20 mM Na phosphate, 2 mM EDTA, 400 mM NaCl, 0.2% BSA, 0.4% Block Ace, 0.95% CHAPS). […] Alternatively, conditioned media collected from cells was loaded neat and 1:2. Aβ-40 and Aβ-42 peptide standards were purchased from American Peptide Co. (Sunnyvale, Calif.), stored at −70° C., and diluted in EC buffer immediately prior to use. ELISA plates were incubated overnight with 4° C. with samples and standards. Aβ was detected by incubating for 4 hours at room temperature with an HRP-conjugated anti-Aβ antibody in 20 mM Na phosphate, 2 mM EDTA, 400 mM Nacl, 1.0% BSA. ELISA plates were developed using a color reaction (ABTS Peroxide Substrate System, Kirkegaard & Perry, Gaithersburg, Md.) and the OD450 read.
A general note: ELISA stands for enzyme-linked immunosorbent assay.

The test system of assay [4] is N2a cells expressing APPswe/PS1Δ9. Description: Secreted Aβ in conditioned medium by ELISA. Particulars: 5 mM 3MA, FIG. 10B. Type of assay: cell-based, murine. The procedure:
as §2, §3

Assay [5] has the same test system. Put plainly: Tau protein levels by Western blot. The note with it: for increase in tau protein levels: FIG. 10C; for tau protein levels (Western blot): figure legend FIG. 10C. In kind it is cell-based, murine. How it is done:
There are numerous assays for tau known in the art. For example, the processing of tau by immunocytochemistry and Western blot analysis is performed using an antibody that recognizes both phosphorylated and non-phosphorylated forms (Adamec et al., Brain Res. 757:93–101, 1997). Abnormal tau conformation and byperphosphorylated tau is examined using suitable monoclonal antibodies (e.g., MC1 (Jicha et al., J. Neurosci. Res. 48:128–132) and AT8 (Innogenetics, Gent, Belgium)). EM analysis can be performed to characterize cytoskeletal changes in neurons (Nixon, Bioessays 20:798–807, 1998).
(In general: A western blot detects proteins with antibodies after separation by electrophoresis.)

The test system of assay [6] is primary cortical neurons from normal mouse embryos. Put plainly: Secreted Aβ by ELISA in primary cortical neuronal cultures. Type of assay: cell-based. How it is done: We have confirmed this effect of the autophagy inhibitor 3MA on Aβ production in primary cortical neuronal cultures derived from normal mouse embryos (FIG. 11). Following a media change, cultures were incubated in the presence or absence of 3MA for six hours. […] Dissected embryonic cortical tissue from Sprague-Dawley rat embryos (18d gestation) or mouse embryos (17d gestation) is rinsed with calcium/magnesium-free Hanks buffered saline solution and resuspended in 5.0 ml 0.125% trypsin and 0.5 mM EDTA at 37° C. […] Trypsin is quenched and the cells are plated at 1.5×10^6 cells/mL on polylysine coated plates and cultured at 37° C. in 5% CO2 in B27/Neurobasal medium (Gibco/BRL, Gaithersburg, Md.) containing 0.0015% fluorodeoxyuridine (FUDR), giving cultures that are >95% neuronal. For the Aβ sandwich ELISA, Nunc-Immuno Plates (Nunc A/S, Roskilde, Denmark) were coated overnight using 4° C. using antibodies specific for Aβ40 or Aβ42 in 100 mM bicarbonate buffer, pH 9.6. […] Immediately prior to being loaded on the ELISA, 1 ml of the brain homogenate was extracted in diethylamine (Sigma, St. Lousi, Minn.) by adding an equal volume of 0.4% DEA in 100 mM NaCl, re-homogenized and centrifuged for 1 hour at 100,000×g. […] Alternatively, conditioned media collected from cells was loaded neat and 1:2. Aβ-40 and Aβ-42 peptide standards were purchased from American Peptide Co. (Sunnyvale, Calif.), stored at −70° C., and diluted in EC buffer immediately prior to use. ELISA plates were incubated overnight with 4° C. with samples and standards. Aβ was detected by incubating for 4 hours at room temperature with an HRP-conjugated anti-Aβ antibody in 20 mM Na phosphate, 2 mM EDTA, 400 mM Nacl, 1.0% BSA. ELISA plates were developed using a color reaction (ABTS Peroxide Substrate System, Kirkegaard & Perry, Gaithersburg, Md.) and the OD450 read.

The mark [7] stands for this setting: 10 mM inhibitor (leucine and histidine 10 mM each), four hours metabolic labeling, growth medium, FIG. 10A top panel.
Where [8] appears, read: 10 mM inhibitor, C-terminal antibody, FIG. 10A bottom panel.
Setting [9] is: six hours incubation, ELISA, FIG. 11.

On to `Cn1cnc(N)c2ncnc1-2` [3MA, 3-methyladenine], for which the “amount of Aβ secreted” value in assay [1] (setting [7]) and in assay [2] (setting [7]) was “reduced” in each case. The “amount of full-length APP immunoprecipitated from cell lysates” value in assay [1] (setting [8]) and in assay [2] (setting [8]) was “did not affect” throughout. Further, in assay [1] (figure legend FIG. 10A, neuroblastoma cells, both lines shown), the “Aβ generation (autoradiograph)” value is “decreased”. The “decrease of Aβ1-40 in conditioned medium” value in assay [3] (5 mM 3MA, ELISA, FIG. 10B) is no less than 20%; in assay [4] it was no less than 20%. Also, the “decrease of Aβ1-42 in conditioned medium” value in assay [3] (5 mM 3MA, ELISA, FIG. 10B) is on record as no less than 20%; in assay [4], no less than 20%. Besides, the “Aβ secretion into the growth media (ELISA)” value in assay [3] (figure legend FIG. 10B, N2a cells, both lines shown) is given as “decreased”. Further, in assay [5] (3MA-treated, concentration not given), the “increase in tau protein levels” value is on record as “approximately 2 times”. In addition, the “tau protein levels (Western blot)” value in assay [5] was “increased”. For the same molecule, the “Aβ secretion into the media” value in assay [6] (figure legend FIG. 11) was “reduction”. In assay [6] (setting [9]), the “reduction of Aβ40 secreted into the media” value is on record as “approximately 20%”. In addition, in assay [6] (setting [9]), the “reduction of Aβ42 secreted into the media” value was “approximately 20%”.
Turning to `CC[C@]1(O)C[C@@H]2CN(CCc3c([nH]c4ccccc34)[C@@](C(=O)OC)(c3cc4c(cc3OC)N(C)[C@H]3[C@@](O)(C(=O)OC)[C@H](OC(C)=O)[C@]5(CC)C=CCN6CC[C@]43[C@@H]65)C2)C1` [vinblastine], in assay [5], the “tau protein levels (Western blot)” value is recorded as “increased”. The “increase in tau protein levels” value in assay [5] (vinblastine 50 μM) is roughly 2.5 times.
